Reference: patent US12565474B2, “Discovery, total synthesis, and bioactivity of doscadenamides” (priority 2019, dated 2026)
Entries after “also recorded” stand apart in the source; their conditions may differ.

How the values were obtained:
[1] = tested on: pTIM5319 (lacks the AHL-binding site LasR); assay: Related reporter pTIM5319 lacking a functional AHL-binding domain; type: cell-based; settings: E. coli, 37° C., 6 h
Experimental: (§1) FIG. 16. depicts activating activity of doscadenamide A (1a) in related reporter pTIM5319, which lacks a functional AHL-binding domain. The bacterial cultures were treated with 1a in a dose-response manner and solvent control at 37° C. for 6 h before fluorescence was measured. Results are expressed as fold activation compared to solvent control. Data are presented as mean±SD, **P<0.01, ****P<0.0001, compared to solvent control using one-way ANOVA (n=3).
(§2) Lett. 1998, 163 (2), 185-192]. […] 2011, 7 (4), 1205-1216]. To validate the activating activity of 1a, its effect on wild-type P. aeruginosa was tested. […] For comparison, the other three diastereomers 1b, 1c and 1d were also included in the test. Such superagonists are expected to artificially regulate virulence factor production such as pyocyanin and activate QS at lower bacterial cell populations, thus to stimulate the host immune system to clear the infection when fewer bacterial cells are present [Galloway, W.; Hodgkinson, J.; Bovvden, S.; Welch, M.; Spring, D., Trends Microbiol. 2012, 20 (9), 449-458].
Doscadenamide A (1a) activates QS, which was established using the 3-oxo-C12-HSL-responsive reporter plasmid pSB1075, a plasmid encoding LasR (the C12 HSL receptor in Pseudomonas aeruginosa) and containing a light-producing luxCDABE cassette expressed in Escherichia coli. […]

wild-type P. aeruginosa = assay: Pyocyanin production in wild-type P. aeruginosa; type: cell-based, Pseudomonas aeruginosa; settings: 10 PM, 6 h shaking at 37° C.
Experimental: Data are presented as mean±SD, **P<0.01, ****P<0.0001, compared to solvent control using one-way ANOVA (n=3).
as §2

[2] = tested on: P. aeruginosa mutant PAO-JP1; assay: Pyocyanin quantification in P. aeruginosa strain PAO-JP1; type: cell-based, Pseudomonas aeruginosa; settings: PAO-JP1, 6 h
Experimental: To follow up our previous study regarding the QS modulatory activity of doscadenamide A (1a) on wild-type P. aeruginosa and extend reporter gene assay studies, we examined the QS activation of different doscadenamides using a QS system deficient strain, PAO-JP1. PAO-JP1 is a P. aeruginosa mutant with a lasl deletion that cannot produce C12. […]
[…] The culture was then spun down for 10 min at the maximum speed, and the supernatant was collected and filtered using […] Eppendorf filters. 500 μL of the sterile supernatant were added to 500 μL CHCl3 in an Eppendorf tube. Tube shaking allowed for the extraction of pyocyanin in the CHCl3 layer. This layer was then added to 150 μL of 0.2 N HCl in another Eppendorf tube. After shaking, the aqueous layer and the organic layer were separated. 100 μL of the aqueous layer were transferred to a clear bottomed 384-well plate and the absorbance was measured at […] to quantify the pyocyanin production. Data was analyzed using GraphPad Prism 5 software.

V. harveyi BB120 strain = assay: Bioluminescence modulation in V. harveyi; type: cell-based, Vibrio harveyi; settings: for QS activation (bioluminescence, ΔLUM normalized by OD600): concentration range 10-200 PM
Experimental: FIGS. 19A-C depict QS activity in different systems. FIG. 19A is a graph showing activity of doscadenamide A (1a) in E. coli reporter gene assay using pSB1075 (wild-type) and point mutants (Y56F, W60F and D73N). […] C12 was used as the positive control. […] AI-1 is a reported quorum sensing autoinducer and was used as the positive control.
Bioluminescent V. harveyi BB120 strain (wild-ype) was cultivated in AB media overnight (15-16 h) at 30° C. (OD600 is about 2.0-2.5). The overnight cultivated strain […] was diluted to 10 mL by AB media (OD600<0.1). 100 μL the diluted BB120 strain was distributed to each well of 96-well white plate. The solution of each tested compound in DMSO (0.5 μL) at different concentration was added to BB120 cultures on plate. Triplicate was conducted for each compound and each concentration. After addition, bacterial cultures were incubated at 30° C. for 7 hours. Then the emitted luminescence and OD600 was measured by BioTek Synergy H1 plate reader. AI-1 and DMSO were used as positive control and negative control, respectively.

PARP = assay: Western blot of PARP cleavage in MDA-MB-231 cells with TRAIL; type: cell-based; settings: MDA-MB-231, TRAIL 20 ng/mL, compound 50 μM (FIG. 20E)
MDA-MB-231 cells = assay: MDA-MB-231 cell viability (MTT) with TRAIL, synergy evaluation; settings: for cell viability after pretreatment and TRAIL co-treatment: 3 h pretreatment (5 μM, 2 μM); for cell viability after pretreatment and TRAIL co-treatment / synergistic effect with TRAIL / sensitization (Bliss independence): then TRAIL 20 ng/mL for 24 h; for synergistic effect with TRAIL / sensitization (Bliss independence): 3 h pretreatment; for cytotoxicity compared to doscadenamide A (1a): MDA-MB-231
Experimental: MDA-MB-231 cell viability after 3 h pretreatment with DMSO (solvent control), C12 as well as doscadenamide A (1a) and its structural analogs, B) 5 μM and C) 2 μM followed by combined TRAIL (20 ng/mL) treatment for 24 h. […] MDA-MB-231 cells were treated with doscadenamide A (1a) and its structural analogs for 3 h, followed by treatment with TRAIL (20 ng/mL) for 24 h, C12 was included as positive control. “A Bliss independence” is the difference between observed growth inhibition and Bliss expectation. Values greater than zero represent a synergistic response, represented as red in the figure. Bliss expectation is C=(A+B)−(A×B), where A and B are the growth inhibition fractions of two compounds at a given dose. Cell viability was quantified using MTT assay.
MDA-MB-231 cells were pretreated with C12, doscadenamides or solvent control for 3 h and then stimulated with TRAIL for 24 h (FIGS. 20B and 20C). We measured cell viability and calculated the A Bliss independence of each compound with TRAIL.

LasR [3] = biological target: T1, LasR (Pseudomonas aeruginosa, UniProt P25084); assay: Quorum sensing reporter assay, pSB1075 (lasR-luxCDABE) expressed in E. coli; type: cell-based; set-up: expressed in transfected cells; host or cells: Escherichia coli carrying plasmid pSB1075; settings: 37° C., 6 h, dose-response, vs solvent control
Experimental: as §1, with “15.” for “16.”, “pSB1075, the lasR-luxCDABE” for “related”, “constructs expressed in E. coli.” for “pTIM5319, which lacks a functional AHL-binding domain.”
as §2, with “449-458]. […]” for “449-458].”
Doscadenamide A (1a) in a dose-response manner and EtOH control were added to the corresponding wells in a 96-well plate and the solvent was allowed to evaporate. […] The plate was incubated at 37° C. for 6 h before the measurement of luminescence.

cancer cells = settings: cited from earlier work
LasR [4] = biological target: T1, LasR; settings: cited from earlier work

T1 sequence (P25084 whole entry, the tested form may be a part): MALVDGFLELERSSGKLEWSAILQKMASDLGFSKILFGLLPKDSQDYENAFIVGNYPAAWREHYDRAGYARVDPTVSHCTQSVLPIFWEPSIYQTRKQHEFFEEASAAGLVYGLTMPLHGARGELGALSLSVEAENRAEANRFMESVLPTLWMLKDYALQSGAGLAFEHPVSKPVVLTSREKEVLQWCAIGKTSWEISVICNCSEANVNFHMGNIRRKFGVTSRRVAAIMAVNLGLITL

Compound	QS activation (pyocyanin production normalized for cell number) ([2]; 100 μM)	QS activation (bioluminescence, ΔLUM normalized by OD600) (V. harveyi BB120 strain)	synergistic effect with TRAIL / sensitization (Bliss independence) (MDA-MB-231 cells)	cytotoxicity compared to doscadenamide A (1a) (MDA-MB-231 cells)	also measured
C#CCCCC[C@@H](C)C(=O)NCCCC[C@H]1C(OC)=CC(=O)N1C(=O)[C@H](C)CCCCC#C [Compound 1a, (R)-N-(4-((S)-3-methoxy-1-((R)-2-methyloct-7-ynoyl)-5-oxo-2,5-dihydro-1H-pyrrol-2-yl)butyl)-2-methyloct-7-ynamide]	3 fold	activating across the concentration range tested	can effectively improve TRAIL-induced apoptosis	–	activation of related reporter pTIM5319 [1]: abolished; production of QS pigment pyocyanin / QS modulation (wild-type P. aeruginosa): elevated; PARP cleavage (Western blot) (PARP): evident presence of cleaved PARP; cell viability after pretreatment and TRAIL co-treatment (MDA-MB-231 cells): clear decrease in cell viability; activation of 3-oxo-C12-HSL-responsive reporter plasmid pSB1075 (QS activation) (LasR [3]): can activate; also recorded: activates QS
C=CCCCC[C@@H](C)C(=O)NCCCC[C@H]1C(OC)=CC(=O)N1C(=O)[C@H](C)CCCCC=C [Compound 1f, Doscadenamide F]	–	–	–	improved cytoxicity	QS activating activity at <100 μM (V. harveyi BB120 strain): reduced
C#CCCCCCC(=O)NCCCC[C@H]1C(OC)=CC(=O)N1C(=O)[C@H](C)CCCCC#C [Compound 1j, Doscadenamide J]	–	–	–	–	QS activating activity at <100 μM (V. harveyi BB120 strain): reduced
CCCCCC[C@@H](C)C(=O)NCCCC[C@H]1C(OC)=CC(=O)N1C(=O)[C@H](C)CCCCCC [Compound 1k, Doscadenamide S4]	–	–	best agents to sensitize MDA-MB-231 cells	improved cytoxicity	–
C#CCCCC[C@@H](C)C(=O)NCCCC[C@@H]1NC(=O)C=C1OC [Compound 2a, Doscadenamide S8]	–	consistently inhibited QS signaling	synergistic effect with TRAIL, except 2a	–	QS activation (pyocyanin production) without normalization for bacterial cell count [2]: did not show any level of activation; QS-activating effect (pyocyanin production normalized for cell number), in words ([2]; 100 μM): minimal QS-activating effect; also recorded: essentially inactive; PARP cleavage (Western blot) (PARP): no effect; cell viability after pretreatment and TRAIL co-treatment (MDA-MB-231 cells): no effect on cell viability
C#CCCCC[C@@H](C)C(=O)N1C(=O)C=C(OC)[C@@H]1CCCCNC(=O)OC(C)(C)C [Compound 3a, Doscadenamide S10]	3 fold	activating across the concentration range tested	–	–	–
C=CCCCC[C@@H](C)C(=O)N1C(=O)C=C(OC)[C@@H]1CCCCNC(=O)OC(C)(C)C [Compound 3b, Doscadenamide S11]	4 fold	–	–	improved cytoxicity	–
CCCCCC[C@@H](C)C(=O)N1C(=O)C=C(OC)[C@@H]1CCCCNC(=O)OC(C)(C)C [Compound 3c, Doscadenamide S12]	5 fold	only had a minor activating trend	best agents to sensitize MDA-MB-231 cells	improved cytoxicity	cell viability after pretreatment and TRAIL co-treatment (MDA-MB-231 cells): enhanced activity
CCCCCCCCCC(=O)CC(=O)N[C@H]1CCOC1=O [Compound C12, reference compound]	~3 fold	–	–	–	synergistic effect on TRAIL-induced apoptosis reported in the literature (cancer cells): synergistic effect on TRAIL-induced apoptosis
CCCCCCC[C@@H]1C[C@H]1CCC(=O)O [lyngbyoic acid]	–	–	–	–	LasR / quorum sensing modulation reported in the literature (LasR [4]): strongly inhibit the activity of LasR
C=C(CCCCC)CCCC(=O)O [pitinoic acid A]	–	–	–	–	LasR / quorum sensing modulation reported in the literature (LasR [4]): P. aeruginosa quorum sensing inhibitor
TRAIL: tumor necrosis factor-related apoptosis-inducing ligand, a TNF family cytokine	–	–	–	–	fraction of cells undergoing apoptotic death (MDA-MB-231 cells; MDA-MB-231, TRAIL alone 20 ng/mL): approximately 20%; cell viability remaining (MDA-MB-231 cells; MDA-MB-231, TRAIL alone 500 ng/mL): 50%
